Ends that are not written are not given here.
Assays:
[1] = system: antigen peptide (peptide-conjugated BSA); assay: Antibody titer in blood of immunized mice by ELISA against antigen peptide; type: in vivo, mouse; settings: Example 1: C57BL/6J mice, KLH-antigen complex s.c., Freund's adjuvant, serum 2 weeks after booster (total 4 weeks)
Excerpt: (§1) C57BL/6J male mice aged 8 weeks were purchased from Charles River Laboratories Japan, Inc. After the delivery, the mice were reared in an environment where the room temperature and the light and dark cycles were maintained, and were provided with feed and water ad libitum. As a candidate sequence leading to activation of helper T cells by MHC class II, two peptide sequences: MTGSAADTHR (SEQ ID NO: 4; hereinafter, a peptide composed of the amino acid sequence is referred to as “MTG peptide”) and RRRQASPPRR (SEQ ID NO: 5; hereinafter, a peptide composed of the amino acid sequence is referred to as “RRR peptide”), each of which is not common to VASH1 in the VASH2 sequence were selected (FIG. 1). With respect to these peptides, peptide vaccines using KLH as a carrier were constructed. Note that for the conjugation of each peptide with KLH, a glutaraldehyde method was used. When the amount of the peptide introduced into KLH was measured for each of the obtained peptide vaccines, the amount of MTG was 66 to 70 nmol/mg of the conjugate, and the amount of RRR was 62 to 76 nmol/mg of the conjugate. Subsequently, 5 μg of KLH (control) and 20 μg of each of the KLH-antigen complexes were prepared with physiological saline so that the total amount was 50 μL, respectively, whereby KLH-mixed solutions were obtained. To each of the KLH-mixed solutions (50 μL), an equal amount of complete Freund's adjuvant was added. The obtained mixture was subcutaneously administered to the mice, whereby initial immunization was carried out. After 2 weeks from the administration, booster immunization was carried out by subcutaneously administering a mixture of each of the KLH-mixed solutions (50 μL) and an equal amount of incomplete Freund's adjuvant to the mice. Further, after 2 weeks from the booster immunization (after a total of 4 weeks), an increase in the antibody titer in the blood of each of the immunized mice was verified by ELISA.
The measurement of the antibody titer by ELISA was carried out as follows. After 2 weeks from the booster immunization (after a total of 4 weeks), the blood was collected from the facial vein of each of the immunized mice, and the serum separated from the blood was subjected to ELISA. By using 50 mM carbonate buffer, peptide-conjugated BSA was prepared at 10 μg/mL, and further a recombinant VASH2 protein was prepared at 1 μg/mL, each of which was added at 50 μL/well, and the resultant was left to stand overnight at 4° C. After the solution in each well was removed, 5% skim milk was added at 150 μL/well. […] After 30 minutes, the reaction was stopped by adding 0.5 N H2SO4 at 50 μL/well, and an absorbance (450 nm) was measured using a microplate reader.

[2] = system: Lewis lung cancer cells (LLC); assay: Subcutaneous implant model, tumor growth inhibitory effect (LLC); type: in vivo, mouse; settings: immunized C57BL/6J mice, cells implanted s.c. on day 29, measured 14 days after implantation
Protocol: (§2) After 2 weeks from the administration of each peptide vaccine and incomplete Freund's adjuvant in Example 1 (on day 29 after the initial peptide vaccine administration), mouse-derived tumor cells were implanted in an immunized mouse, whereby a subcutaneous implant model was prepared. Specifically, mouse lung cancer cells (Lewis lung cancer cells (LLC)) or mouse melanoma cells (B16F1) (all have C57BL/6J as a genetic background) cultured in a RPMI+10% FBS medium were collected by centrifugation, and a cell suspension (1.0×10^8 cells/mL) was prepared with a serum-free medium, and 0.1 mL (1.0×10^7 cells/animal) of the cell suspension was implanted in a right axillary subcutaneous region of a mouse using a 27G injection needle and a syringe, whereby a subcutaneous implant model of tumor cells was prepared.

[3] = system: mouse melanoma cells (B16F1); assay: Subcutaneous implant model, tumor growth inhibitory effect (B16F1); type: in vivo; settings: immunized C57BL/6J mice, cells implanted s.c. on day 29, measured 14 days after implantation
Protocol: as §2

[4] = system: recombinant human VASH2 protein; assay: Antibody titer in blood of immunized mice by ELISA against recombinant VASH2 protein; type: in vivo, mouse; settings: Example 1: C57BL/6J mice, KLH-antigen complex s.c., Freund's adjuvant, serum 2 weeks after booster (total 4 weeks)
Excerpt: as §1
The measurement of the antibody titer by ELISA was carried out as follows. After 2 weeks from the booster immunization (after a total of 4 weeks), the blood was collected from the facial vein of each of the immunized mice, and the serum separated from the blood was subjected to ELISA. By using 50 mM carbonate buffer, peptide-conjugated BSA was prepared at 10 μg/mL, and further a recombinant VASH2 protein was prepared at 1 μg/mL, each of which was added at 50 μL/well, and the resultant was left to stand overnight at 4° C. After the solution in each well was removed, 5% skim milk was added at 150 μL/well. After the resultant was left to stand at room temperature for 2 hours, the solution was removed, and subsequently, a serum sample diluted by 20 to 62500 times with 5% skim milk was added at 50 μL/well, and the resultant was left to stand overnight at 4° C. Subsequently, washing was carried out with PBS (200 μL/well×6 times), and thereafter, a secondary antibody (HRP-conjugated anti-Mouse IgG) diluted by 1000 times with 5% skim milk was added at 50 μL/well. After the resultant was left to stand at room temperature for 3 hours, washing was carried out with PBS (200 μL/well×3 times). Thereafter, tetramethylbenzidine (TMB) was added at 50 μL/well, and the resultant was left to stand at room temperature under light shielding. After 30 minutes, the reaction was stopped by adding 0.5 N H2SO4 at 50 μL/well, and an absorbance (450 nm) was measured using a microplate reader.

Substance: RRR peptide vaccine: RRR peptide RRRQASPPRR (SEQ ID NO: 5) conjugated with KLH as carrier by a glutaraldehyde method (also: conjugated with KLH by glutaraldehyde)
- antibody titer against the antigen peptide [1]: significant concentration-dependent increase
- tumor size (tumorigenesis), Lewis lung cancer cells [2]: could not inhibit tumorigenesis
- tumor size (tumorigenesis), B16F1 melanoma cells [3]: could not inhibit tumorigenesis
- antibody titer against the recombinant human VASH2 protein [4]: a significant increase in the antibody titer was not confirmed

— patent publication US11712466B2, “Vaccine composition” (TOHOKU UNIVERSITY, priority 2017, dated 2023)
